Reference: PubChem BioAssay (NCI)
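How tested: cells in 96-well plates exposed to compound for 48 hours at five concentrations. At the GI50, growth is halved. TGI marks complete inhibition of growth.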

Experiments:
Assay in all cases: NCI anticancer screen, dose series, 48 h
786-0 renal = tested on: 786-0 renal
A498 renal = tested on: A498 renal
A549 NSCLC = tested on: A549 NSCLC
ACHN renal = tested on: ACHN renal
BT-549 breast = tested on: BT-549 breast
CAKI-1 renal = tested on: CAKI-1 renal
CCRF-CEM leukemia = tested on: CCRF-CEM leukemia
COLO 205 colon = tested on: COLO 205 colon
DU-145 prostate = tested on: DU-145 prostate
EKVX NSCLC = tested on: EKVX NSCLC
HCC-2998 colon = tested on: HCC-2998 colon
HCT-116 colon = tested on: HCT-116 colon
HCT-15 colon = tested on: HCT-15 colon
HL-60(TB) leukemia = tested on: HL-60(TB) leukemia
HOP-62 NSCLC = tested on: HOP-62 NSCLC
HOP-92 NSCLC = tested on: HOP-92 NSCLC
HS 578T breast = tested on: HS 578T breast
HT29 colon = tested on: HT29 colon
IGROV1 ovarian = tested on: IGROV1 ovarian
K-562 leukemia = tested on: K-562 leukemia
KM12 colon = tested on: KM12 colon
LOX IMVI melanoma = tested on: LOX IMVI melanoma
M14 melanoma = tested on: M14 melanoma
MALME-3M melanoma = tested on: MALME-3M melanoma
MCF7 breast = tested on: MCF7 breast
MDA-MB-231 breast = tested on: MDA-MB-231 breast
MDA-MB-435 = tested on: MDA-MB-435
MOLT-4 leukemia = tested on: MOLT-4 leukemia
NCI-H226 lung = tested on: NCI-H226 lung
NCI-H23 lung = tested on: NCI-H23 lung
NCI-H460 lung = tested on: NCI-H460 lung
NCI-H522 lung = tested on: NCI-H522 lung
NCI/ADR-RES ovarian = tested on: NCI/ADR-RES ovarian
OVCAR-3 ovarian = tested on: OVCAR-3 ovarian
OVCAR-4 ovarian = tested on: OVCAR-4 ovarian
OVCAR-5 ovarian = tested on: OVCAR-5 ovarian
OVCAR-8 ovarian = tested on: OVCAR-8 ovarian
PC-3 prostate = tested on: PC-3 prostate
RPMI-8226 leukemia = tested on: RPMI-8226 leukemia
RXF 393 renal = tested on: RXF 393 renal
SF-268 CNS = tested on: SF-268 CNS
SF-295 CNS = tested on: SF-295 CNS
SF-539 CNS = tested on: SF-539 CNS
SK-MEL-2 melanoma = tested on: SK-MEL-2 melanoma
SK-MEL-28 melanoma = tested on: SK-MEL-28 melanoma
SK-MEL-5 melanoma = tested on: SK-MEL-5 melanoma
SK-OV-3 ovarian = tested on: SK-OV-3 ovarian
SN12C renal = tested on: SN12C renal
SNB-19 CNS = tested on: SNB-19 CNS
SNB-75 CNS = tested on: SNB-75 CNS
SR leukemia = tested on: SR leukemia
SW-620 colon = tested on: SW-620 colon
T-47D breast = tested on: T-47D breast
TK-10 renal = tested on: TK-10 renal
U251 CNS = tested on: U251 CNS
UACC-257 melanoma = tested on: UACC-257 melanoma
UACC-62 melanoma = tested on: UACC-62 melanoma
UO-31 renal = tested on: UO-31 renal

Structure (SMILES): Cc1cc(Cl)ccc1Nc1nc(C(F)(F)F)ccc1C(=O)N/N=C/c1cccc(O)c1
- GI50 (786-0 renal): 4.01 µM
- TGI (786-0 renal): 13.3 µM
- GI50 (A498 renal): 4.23 µM
- TGI (A498 renal): 18.1 µM
- GI50 (A549 NSCLC): 8.15 µM
- TGI (A549 NSCLC): 25.5 µM
- GI50 (ACHN renal): 4.19 µM
- TGI (ACHN renal): > 31.8 µM
- GI50 (BT-549 breast): 0.861 µM
- TGI (BT-549 breast): 4.24 µM
- GI50 (CAKI-1 renal): 0.202 µM
- TGI (CAKI-1 renal): 5.98 µM
- GI50 (CCRF-CEM leukemia): 0.449 µM
- TGI (CCRF-CEM leukemia): 2.41 µM
- GI50 (COLO 205 colon): 1.17 µM
- TGI (COLO 205 colon): 9.55 µM
- GI50 (DU-145 prostate): 3.66 µM
- TGI (DU-145 prostate): 15.2 µM
- GI50 (EKVX NSCLC): 0.814 µM
- TGI (EKVX NSCLC): 7.19 µM
- GI50 (HCC-2998 colon): 3.13 µM
- TGI (HCC-2998 colon): 13.8 µM
- GI50 (HCT-116 colon): 4.42 µM
- TGI (HCT-116 colon): 16.5 µM
- GI50 (HCT-15 colon): 2.51 µM
- TGI (HCT-15 colon): 16 µM
- GI50 (HL-60(TB) leukemia): 2.11 µM
- TGI (HL-60(TB) leukemia): 4.97 µM
- GI50 (HOP-62 NSCLC): 7.22 µM
- TGI (HOP-62 NSCLC): 20.7 µM
- GI50 (HOP-92 NSCLC): 3.36 µM
- TGI (HOP-92 NSCLC): 13.9 µM
- GI50 (HS 578T breast): 2.11 µM
- TGI (HS 578T breast): 11.5 µM
- GI50 (HT29 colon): 5.03 µM
- TGI (HT29 colon): 16.9 µM
- GI50 (IGROV1 ovarian): 3.85 µM
- TGI (IGROV1 ovarian): 23.4 µM
- GI50 (K-562 leukemia): 1.99 µM
- TGI (K-562 leukemia): 7.1 µM
- GI50 (KM12 colon): 2.56 µM
- TGI (KM12 colon): 11.9 µM
- GI50 (LOX IMVI melanoma): 3.18 µM
- TGI (LOX IMVI melanoma): 13.6 µM
- GI50 (M14 melanoma): 4.53 µM
- TGI (M14 melanoma): 17.3 µM
- GI50 (MALME-3M melanoma): 1.75 µM
- TGI (MALME-3M melanoma): 8.8 µM
- GI50 (MCF7 breast): 2.21 µM
- TGI (MCF7 breast): 12.7 µM
- GI50 (MDA-MB-231 breast): 4.77 µM
- TGI (MDA-MB-231 breast): 35.4 µM
- GI50 (MDA-MB-435): 2.17 µM
- TGI (MDA-MB-435): 13.7 µM
- GI50 (MOLT-4 leukemia): 1.01 µM
- TGI (MOLT-4 leukemia): 3.27 µM
- GI50 (NCI-H226 lung): 3.74 µM
- TGI (NCI-H226 lung): 20.1 µM
- GI50 (NCI-H23 lung): 6.66 µM
- TGI (NCI-H23 lung): 20.1 µM
- GI50 (NCI-H460 lung): 3.57 µM
- TGI (NCI-H460 lung): 12.8 µM
- GI50 (NCI-H522 lung): 8.28 µM
- TGI (NCI-H522 lung): > 41 µM
- GI50 (NCI/ADR-RES ovarian): 4.78 µM
- TGI (NCI/ADR-RES ovarian): 17.6 µM
- GI50 (OVCAR-3 ovarian): 1.48 µM
- TGI (OVCAR-3 ovarian): 12.7 µM
- GI50 (OVCAR-4 ovarian): 1.13 µM
- TGI (OVCAR-4 ovarian): 14.6 µM
- GI50 (OVCAR-5 ovarian): 5.96 µM
- TGI (OVCAR-5 ovarian): 25 µM
- GI50 (OVCAR-8 ovarian): 1.68 µM
- TGI (OVCAR-8 ovarian): 15.3 µM
- GI50 (PC-3 prostate): 2.96 µM
- TGI (PC-3 prostate): 12.9 µM
- GI50 (RPMI-8226 leukemia): 2.51 µM
- TGI (RPMI-8226 leukemia): 9.68 µM
- GI50 (RXF 393 renal): 0.194 µM
- TGI (RXF 393 renal): 11.3 µM
- GI50 (SF-268 CNS): 1.6 µM
- TGI (SF-268 CNS): 12.2 µM
- GI50 (SF-295 CNS): 0.159 µM
- TGI (SF-295 CNS): 1.1 µM
- GI50 (SF-539 CNS): 4.38 µM
- TGI (SF-539 CNS): 15.8 µM
- GI50 (SK-MEL-2 melanoma): 2.09 µM
- TGI (SK-MEL-2 melanoma): 12.7 µM
- GI50 (SK-MEL-28 melanoma): 3.65 µM
- TGI (SK-MEL-28 melanoma): 16.8 µM
- GI50 (SK-MEL-5 melanoma): 3.35 µM
- TGI (SK-MEL-5 melanoma): 12.6 µM
- GI50 (SK-OV-3 ovarian): 1.23 µM
- TGI (SK-OV-3 ovarian): 10.6 µM
- GI50 (SN12C renal): 6.77 µM
- TGI (SN12C renal): 23.8 µM
- GI50 (SNB-19 CNS): 2.37 µM
- TGI (SNB-19 CNS): 11.9 µM
- GI50 (SNB-75 CNS): 2.07 µM
- TGI (SNB-75 CNS): 13.8 µM
- GI50 (SR leukemia): 0.836 µM
- TGI (SR leukemia): 4.49 µM
- GI50 (SW-620 colon): 3.39 µM
- TGI (SW-620 colon): 14.9 µM
- GI50 (T-47D breast): 0.112 µM
- TGI (T-47D breast): 3.13 µM
- GI50 (TK-10 renal): 2.45 µM
- TGI (TK-10 renal): 12.3 µM
- GI50 (U251 CNS): 4.51 µM
- TGI (U251 CNS): 19.8 µM
- GI50 (UACC-257 melanoma): 11.5 µM
- TGI (UACC-257 melanoma): 38.2 µM
- GI50 (UACC-62 melanoma): 5.88 µM
- TGI (UACC-62 melanoma): 19.5 µM
- GI50 (UO-31 renal): 4.98 µM
- TGI (UO-31 renal): 29 µM
